Measurements as given in patent US9480259B2, “Pyrazolopyrans having herbicidal and pharmaceutical properties” (BASF SE, priority 2012, dated 2016).

Target: Arabidopsis thaliana SHMT
Experiment: SHMT activity assay (ED50 SHMT), coupled with N5,N10-CH2-THF dehydrogenase, NADH at 340 nm
Type: biochemical
Conditions: Arabidopsis thaliana SHMT enzyme assay; values given as upper bounds
Outline: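 His-tagged SHMT purified on Ni-NTA. NADH formation followed at 340 nm for 30 min; ED50 from inhibition of initial velocity.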

Row | EC50 | SMILES
1 | < 10 nM | Cc1n[nH]c2c1C(c1ccc(CCCc3nnn[nH]3)c(Cl)c1)(C1CCC1)C(C#N)=C(N)O2 (centres unmarked) [Compound 2.678]
2 | < 10 nM | COC(=O)c1csc(-c2cc(C#N)cc(C3(C(C)C)C(C#N)=C(N)Oc4[nH]nc(C)c43)c2)c1 (centres unmarked) [Compound 2.679]
3 | < 1000 nM | Cc1n[nH]c2c1C(c1cc(C#N)cc(-c3ccc(C(=O)O)s3)c1)(C1(F)COC1)C(C#N)=C(N)O2 (centres unmarked) [Compound 2.680]
4 | < 10000 nM | Cc1n[nH]c2c1C(c1cc(C#N)cc(-c3ccc(C(=O)O)o3)c1)(C1(F)COC1)C(C#N)=C(N)O2 (centres unmarked) [Compound 2.681]
5 | < 10 nM | COC(=O)c1csc(-c2cc(C#N)cc(C3(C4CCC4)C(C#N)=C(N)Oc4[nH]nc(C)c43)c2)c1 (centres unmarked) [Compound 2.682]
6 | < 10 nM | Cc1n[nH]c2c1C(c1cc(C#N)cc(-c3cc(C(=O)O)cs3)c1)(C1CCC1)C(C#N)=C(N)O2 (centres unmarked) [Compound 2.683]
7 | < 10 nM | Cc1n[nH]c2c1C(c1cc(C#N)cc(-c3cc(C(=O)O)co3)c1)(C1CCC1)C(C#N)=C(N)O2 (centres unmarked) [Compound 2.684]
8 | < 10 nM | Cc1n[nH]c2c1C(c1cc(Br)cc(Br)c1)(C(C)F)C(C#N)=C(N)O2 (centres unmarked) [Compound 2.685]
9 | < 100 nM | Cc1n[nH]c2c1C(c1cc(C#N)cc(-c3cc(C(=O)O)cs3)c1)(C(C)C)C(C#N)=C(N)O2 (centres unmarked) [Compound 2.686]
10 | < 100 nM | Cc1n[nH]c2c1C(c1cc(C#N)cc(C#N)c1)(C(C)F)C(C#N)=C(N)O2 (centres unmarked) [Compound 2.687]
11 | < 1000 nM | Cc1n[nH]c2c1C(c1cc(CN)cc(N(C)C(=O)CCCC(=O)O)c1)(C(C)C)C(C#N)=C(N)O2 (centres unmarked) [Compound 2.689]
12 | < 1000 nM | Cc1n[nH]c2c1C(c1cc(-c3nnn[nH]3)cc(N(C)C(=O)CCCC#N)c1)(C1CCC1)C(C#N)=C(N)O2 (centres unmarked) [Compound 2.690]
13 | < 100 nM | Cc1n[nH]c2c1C(c1cc(C#N)cc(N(C)Cc3nnn[nH]3)c1)(C1CCC1)C(C#N)=C(N)O2 (centres unmarked) [Compound 2.691]
14 | < 1000 nM | Cc1n[nH]c2c1C(c1cc(-c3nnn[nH]3)cc(N(C)CCC#N)c1)(C1CCC1)C(C#N)=C(N)O2 (centres unmarked) [Compound 2.692]
15 | < 100 nM | Cc1n[nH]c2c1C(c1cc(C#N)cc(N(C)CC(=O)O)c1)(C1CCC1)C(C#N)=C(N)O2 (centres unmarked) [Compound 2.693]
16 | < 10 nM | Cc1n[nH]c2c1C(c1cc(C#N)cc(N(C)C(=O)CCCC(=O)O)c1)(C(C)C)C(C#N)=C(N)O2 (centres unmarked) [Compound 2.694]
17 | < 100 nM | Cc1n[nH]c2c1C(c1cc(C#N)cc(N(C)CCCC(=O)O)c1)(C1CCC1)C(C#N)=C(N)O2 (centres unmarked) [Compound 2.695]
18 | < 10 nM | Cc1n[nH]c2c1C(c1cc(Cl)cc(N(C)C(=O)CC#N)c1)(C1CCC1)C(C#N)=C(N)O2 (centres unmarked) [Compound 2.696]

Row | EC50 | SMILES
19 | < 100 nM | Cc1n[nH]c2c1C(c1cc(Cl)cc(N(C)C(=O)CCC#N)c1)(C1CCC1)C(C#N)=C(N)O2 (centres unmarked) [Compound 2.697]
20 | < 100 nM | Cc1n[nH]c2c1C(c1cc(Cl)cc(N(C)C(=O)CCc3nnn[nH]3)c1)(C1CCC1)C(C#N)=C(N)O2 (centres unmarked) [Compound 2.698]
21 | < 100 nM | Cc1n[nH]c2c1C(c1cc(Cl)cc(N(C)C(=O)Cc3nnn[nH]3)c1)(C1CCC1)C(C#N)=C(N)O2 (centres unmarked) [Compound 2.699]
22 | < 100 nM | Cc1n[nH]c2c1C(c1cc(Cl)cc(N(C)C(=O)CCCC#N)c1)(C1CCC1)C(C#N)=C(N)O2 (centres unmarked) [Compound 2.700]
23 | < 100 nM | Cc1n[nH]c2c1C(c1cc(Cl)cc(N(C)C(=O)CCCc3nnn[nH]3)c1)(C1CCC1)C(C#N)=C(N)O2 (centres unmarked) [Compound 2.701]
24 | < 100 nM | Cc1n[nH]c2c1C(c1cccc(Br)c1)(C(C)(F)F)C(C#N)=C(N)O2 (centres unmarked) [Compound 2.702]
25 | < 100 nM | Cc1n[nH]c2c1C(c1cc(Br)cc(Br)c1)(C1CC(F)(F)C1)C(C#N)=C(N)O2 (centres unmarked) [Compound 2.703]
26 | < 100 nM | Cc1n[nH]c2c1C(c1cc(C#N)cc(NS(C)(=O)=O)c1)(C1CCC1)C(C#N)=C(N)O2 (centres unmarked) [Compound 2.704]
27 | < 10 nM | COC(=O)c1ccc(-c2cc(C#N)cc(C3(C(C)C)C(C#N)=C(N)Oc4[nH]nc(C)c43)c2)s1 (centres unmarked) [Compound 2.705]
28 | < 10 nM | COC(=O)c1ccc(-c2cc(C#N)cc(C3(C(C)C)C(C#N)=C(N)Oc4[nH]nc(C)c43)c2)o1 (centres unmarked) [Compound 2.706]
29 | < 1000 nM | Cc1n[nH]c2c1C(c1cc(C#N)cc(C#N)c1)(C1CC(F)(F)C1)C(C#N)=C(N)O2 (centres unmarked) [Compound 2.707]
30 | < 10000 nM | Cc1n[nH]c2c1C(c1ccc(CC#N)c(-c3nnn[nH]3)c1)(C1CCC1)C(C#N)=C(N)O2 (centres unmarked) [Compound 2.708]
31 | < 100 nM | Cc1n[nH]c2c1C(c1cc(CCC#N)cc(-c3nnn[nH]3)c1)(C(C)C)C(C#N)=C(N)O2 (centres unmarked) [Compound 2.710]
32 | < 100 nM | Cc1n[nH]c2c1C(c1cc(CCCC#N)cc(-c3nnn[nH]3)c1)(C(C)C)C(C#N)=C(N)O2 (centres unmarked) [Compound 2.711]
33 | < 100 nM | Cc1n[nH]c2c1C(c1cc(C#N)cc(C#N)c1)(C1CC(F)C1)C(C#N)=C(N)O2 (centres unmarked) [Compound 2.714]
34 | < 1000 nM | Cc1n[nH]c2c1C(c1cc(CCCc3nnn[nH]3)cc(-c3nnn[nH]3)c1)(C(C)C)C(C#N)=C(N)O2 (centres unmarked) [Compound 2.715]
35 | < 10000 nM | Cc1n[nH]c2c1C(c1cc(CCc3nnn[nH]3)cc(-c3nnn[nH]3)c1)(C(C)C)C(C#N)=C(N)O2 (centres unmarked) [Compound 2.716]
